# Results from patent publication US7875603B2, “Specific inhibitors for vascular endothelial growth factor receptors” (Nova Southeastern University, priority 2006, dated 2011).
# Experiments:
# Type in all cases: cell-based
# [1] = system: Human umbilical vein endothelial cell; test: In Vitro Angiogenesis Assay (morphogenesis / tube formation on Matrigel); set-up: key to In Vitro Angiogenesis Assay Results (score of extent of cellular networks): Individual cells, well separated (+++++); Cells begin to migrate and align themselves (++++); Cells begin to line but not sprouting (+++); Visible Sprouting (++); Closed polygons begins to form (+); settings: for In Vitro Angiogenesis Assay Results (score of extent of cellular networks): HUVECs 10^4 cells/well on ECMatrix, inhibitors 1 mM and 10 mM, 8 hours at 37° C., higher score = greater inhibition of angiogenesis
# Protocol: In Vitro Angiogenesis Assay
# Human umbilical vein endothelial cell was purchased from Cambrex Co. (East Rutherford, N.J.) and maintained in EGM (Endothelial Growth Medium) supplemented with 2% FBS, 0.1% EGF, 0.1% Hydrocortisone, 0.1% GA-1000 and 0.4% BBE.
# The morphogenesis assay on Matrigel was performed according to the manufacturer's instructions (Chemicon International). The ECMatrix™ kit consists of laminin, collagen type IV, heparan sulfate, proteoglycans, entactin and nidogen. It also contains various growth factors (TGF-β, FGF) and proteolytic enzymes (plasminogen, tPA, MMPs) that are normally produced in EHS tumors. The incubation condition was optimized for maximal tube-formation as follows: 50 μl of EC Matrix™ was suitably diluted in the ratio 9:1 with 10×diluent buffer and used for coating the 96-well plate. The coated plates were incubated at 37° C. for 1 hr. to allow the Matrix solution to solidify. In the meantime the HUVECs that were cultured for 24 hours in EGM with 2% FBS was trypsinised and re-suspended in the growth media and the cells were counted. After 1 hr. pre-incubation of the plate with Matrix solution, the HUVECs were plated at 10^4 cells/well in the absence or in the presence of different VEGFR inhibitors (1 mM and 10 mM). After 8 hours incubation at 37° C., the cell three-dimensional organization (cellular network structures) was examined under an inverted photomicroscope. Each treatment was performed in triplicate.
# Activated endothelial cells form cellular networks (mesh like structures) resembling capillary tubes sprouting into the stromal space. The formation of these cellular networks is a dynamic process, which started migration and alignment of cells followed by the development of capillary tubes like structures, sprouting of new branches and finally the formation of the cellular networks. Although this in vitro angiogenesis kit is designed only as a qualitative assay, we have made an attempt to quantitate the degree of angiogenesis using a scoring method. The scoring was based on the extent of the cellular networks that were observed as follows:
# Individual cells, well separated (+++++)
# Cells begin to migrate and align themselves (++++)
# Cells begin to line but not sprouting (+++)
# Closed polygons begins to form (+).
# According to our qualitative assessment, the higher the scoring the greater the efficiency of the compound for inhibiting endothelial cell mediated angiogenesis.
# GI-101A = test: Cytotoxicity towards GI-101A breast carcinoma cell line
# MCF-7 = test: Cytotoxicity towards MCF-7 breast carcinoma cell line
compound,measurement,setting,value
COc1ccc(NCC(O)Cn2cnc3c2c(=O)n(C)c(=O)n3C)cc1 (stereo not shown) [Example 1],In Vitro Angiogenesis Assay Results (score of extent of cellular networks),[1],+++++
same,EC50,"[1]; Homo sapiens, estimated, in vitro angiogenesis assay, HUVEC, read-out: EC50 value for anti-antigenic effect",250 nM
same,cytotoxicity towards GI-101A,GI-101A,produced cytotoxicity
same,cytotoxicity towards MCF-7,MCF-7,produced cytotoxicity
CCCCCCCCCCCCCCCCOc1ccc(C(NNS(=O)(=O)c2cccc(C(=O)O)c2)N2CCCCC2)cc1 (stereo not shown) [Example 2],In Vitro Angiogenesis Assay Results (score of extent of cellular networks),[1],++++
CCCCCCCCCCOc1ccc(C(=O)N/N=C/c2ccc(OC)cc2)cc1 [Example 3],In Vitro Angiogenesis Assay Results (score of extent of cellular networks),[1],++++
CCCCCCCOc1ccc(/C=N\NC(=O)c2ccc(Br)cc2)cc1 [Example 4],In Vitro Angiogenesis Assay Results (score of extent of cellular networks),[1],+++
CCCCCCCCCCCCCCCCCCOc1ccc(C(=O)CC(=O)Nc2ccc(Sc3cccc(C(=O)O)c3)c(C(=O)O)c2)cc1 [Example 5],In Vitro Angiogenesis Assay Results (score of extent of cellular networks),[1],+++
CCCCCCCCCCCCCCCCCCOc1ccc(C(=O)CC(=O)Nc2ccc(Oc3ccc(C(=O)O)cc3)c(C(=O)O)c2)cc1 [Example 6],In Vitro Angiogenesis Assay Results (score of extent of cellular networks),[1],++
CCC(CNCCO)Nc1nc2c(c(=O)n(C)c(=O)n2C)n1Cc1ccccc1 (stereo not shown) [Example 7],In Vitro Angiogenesis Assay Results (score of extent of cellular networks),[1],++
